{
  "source": "patent US11506670B2",
  "about": "“Method of genome-wide direct identification of electrophile-sensing targets” (Cornell University, priority 2018, dated 2022)",
  "biological_target": "Ube2V2 (Homo sapiens, UniProt Q15819)",
  "sequence (Q15819 whole entry)": "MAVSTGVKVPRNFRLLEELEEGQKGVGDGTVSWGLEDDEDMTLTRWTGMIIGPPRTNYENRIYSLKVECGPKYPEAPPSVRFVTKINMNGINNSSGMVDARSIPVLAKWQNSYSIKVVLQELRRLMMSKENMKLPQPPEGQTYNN",
  "experiment": "T-REX in zebrafish embryos, biotin/streptavidin pulldown of HNEylated Ube2V2",
  "format": "in vivo",
  "details": "human Halo-Ube2V2 mRNA-injected embryos",
  "experimental": "Zebrafish cell lysis was performed with similar procedure as mammalian cells: 50 mM HEPES (pH 7.6), 150 mM NaCl, 1% Nonidet P-40, 0.2 mg/ml soybean protease inhibitor (Sigma), and 3× Roche cOmplete, mini, EDTA-free protease inhibitor cocktail by rapid freeze-thaw and votexing with zirconia beads (Bio spec 0.7 mm beads; 11079107zx).\nTotal protein concentration from either mammalian cell lysate or zebrafish lysate was determined using Bradford assay with BSA as standard. The lysate was subsequently diluted to 2 mg/mL with a buffer made up of 50 mM HEPES (pH 7.6) and 0.3 mM TCEP, and subjected to Click reaction with biotin azide for 30 min at 37° C. The final concentrations of each components were: 1% SDS, 5% t-BuOH, 200 μM Biotin azide, 2 mM TCEP, 0.9 mM CuSO4 and 0.1 mM Cu(TBTA). The lysate proteins were precipitated by adding 4 volumes of EtOH pre-chilled at −20° C. (EtOH final concentration is 80%). The sample was vortexed and incubated at −80° C. overnight (or at least 4 h) to facilitate precipitation. The precipitant was collected by centrifugation at 21,000×g for 120 min at 4° C. and washed twice with pre-chilled MeOH, once with pre-chilled acetone. […]\nDDR preconditioning occurs in zebrafish embryos. […] Subsequently, the fish were fixed and γ-H2AX levels were measured using whole-mount immunofluorescence.",
  "data": [
    {"smiles": "CCCCCC(O)/C=C/C=O", "note": "(stereo not shown) [HNE, 4-hydroxynonenal]", "values": [
      {"measurement": "HNEylation of Ube2V2 in zebrafish", "result": "significantly HNEylated"}
    ]}
  ]
}
